Assays:
Format in all cases: in vivo
Apera spica-venti [1] = assay: Test Example 4: herbicidal effect by soil treatment (symbol L); conditions: for L: Apera spica-venti, herbicidal effect grade: 320 g/ha
Outline: (§1)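 Seeds were sown in sterilized diluvial soil, covered with about 1.5 cm of soil, and the soil surface was sprayed with a water-diluted emulsion of the compound at a predetermined rate. Plants grew in a greenhouse at 25° C. to 30° C.; effects were scored visually 3 weeks after application.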

Alopecurus myosuroides [2] = assay: Test Example 5: herbicidal effect by foliage application, plastic box (symbol J); conditions: 320 g/ha, 3 weeks after application
Outline: (§2)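 Sowing in sterilized diluvial soil, 14 days' greenhouse growth at 25° C. to 30° C., then uniform small-sprayer foliar application of aqueous emulsion dilution; plants scored three weeks afterwards.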

Cyperus difformis = assay: Test Example 3: herbicidal effect by foliage application, Wagner pot (symbol E); conditions: application herbicide amount 320 g/ha
Outline: (§3)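 Post-emergence, paddy-type test: seedlings 14 d old in shallow-flooded (0.1–0.5 cm) alluvial soil, 25–30 °C greenhouse. Emulsion diluted to target rate, sprayed on leaves. Read-out: visual effect on each species at 3 weeks, per set criteria.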

rapeseed = assay: Test Example 5: effect on crop by foliage application, plastic box (symbol g); conditions: 320 g/ha, 3 weeks after application
Outline: (§4)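 Box culture: sterile diluvial soil, seeds spot-sown, ~1.5 cm cover, raised under glass at 25–30° C.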

corn = assay: Test Example 5: effect on crop by foliage application, plastic box (symbol c); conditions: 320 g/ha, 3 weeks after application
Outline: as §4

Setaria viridis = assay: Test Example 4: herbicidal effect by soil treatment (symbol G); conditions: for G: Setaria viridis, herbicidal effect grade: 320 g/ha
Outline: as §1

Scirpus juncoides [3] = assay: Test Example 1: herbicidal activity, application before weed generation in submerged conditions (symbol B); conditions: application herbicide amount 320 g/ha
Outline: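 Compound emulsion was diluted to a set herbicide amount and applied to the water surface on the sowing day, into submerged (4 cm) alluvial-soil pots sown with mixed weed seeds and transplanted 2.5-leaf rice. Pots were held in a 25–30 °C greenhouse, and weeds were scored 0–5 by herbicidal ratio after 3 weeks.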

Abutilon theophrasti = assay: Test Example 4: herbicidal effect by soil treatment (symbol M); conditions: for M: Abutilon theophrasti, herbicidal effect grade: 320 g/ha
Outline: as §1

Apera spica-venti [4] = assay: Test Example 5: herbicidal effect by foliage application, plastic box (symbol L); conditions: 320 g/ha, 3 weeks after application
Outline: as §2

Chenopodium album = assay: Test Example 4: herbicidal effect by soil treatment (symbol O); conditions: for O: Chenopodium album, herbicidal effect grade: 320 g/ha
Outline: as §1

Alopecurus myosuroides [5] = assay: Test Example 4: herbicidal effect by soil treatment (symbol J); conditions: for J: Alopecurus myosuroides, herbicidal effect grade: 320 g/ha
Outline: as §1

Scirpus juncoides [6] = assay: Test Example 2: herbicidal activity, application during weed generation in submerged conditions (symbol B); conditions: Table 23; application herbicide amount 320 g/ha; grade 0-5 by criteria of Test Example 1
Outline: (§5)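 Steps: fill pots with alluvial soil; add water to 4 cm depth; co-sow the three weeds; grow at 25° C. to 30° C. under glass; at 1–2 leaves, dose the floodwater with diluted emulsion; rate damage visually after 3 weeks.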

[7] = system: Echinochloa crus-galli var. crus-galli; assay: Test Example 3: herbicidal effect by foliage application, Wagner pot (symbol H); conditions: application herbicide amount 320 g/ha
Outline: as §3

Veronica persica = assay: Test Example 4: herbicidal effect by soil treatment (symbol R); conditions: for R: Veronica persica, herbicidal effect grade: 320 g/ha
Outline: as §1

Avena fatua = assay: Test Example 4: herbicidal effect by soil treatment (symbol I); conditions: for I: Avena fatua, herbicidal effect grade: 320 g/ha
Outline: as §1

[8] = system: Echinochloa oryzacola Vasing.; assay: Test Example 2: herbicidal activity, application during weed generation in submerged conditions (symbol A); conditions: Table 23; application herbicide amount 320 g/ha; grade 0-5 by criteria of Test Example 1
Outline: as §5

[9] = application herbicide amount 320 g/ha

Structure (SMILES)	Herbicidal effect grade, B: Scirpus juncoides (Scirpus juncoides [6])	Herbicidal effect grade, A: Echinochloa oryzacola Vasing. [8]	L: Apera spica-venti, herbicidal effect grade (Apera spica-venti [1])	J: Alopecurus myosuroides, herbicidal effect (criteria 0-5) (Alopecurus myosuroides [2])	herbicidal effect on E, grade 0-5 (Cyperus difformis)	g: rapeseed, effect on crop (criteria 0-5) (rapeseed)	c: corn, effect on crop (criteria 0-5) (corn)	G: Setaria viridis, herbicidal effect grade (Setaria viridis)	Herbicidal effect grade, B: Scirpus juncoides (Scirpus juncoides [3])	M: Abutilon theophrasti, herbicidal effect grade (Abutilon theophrasti)	L: Apera spica-venti, herbicidal effect (criteria 0-5) (Apera spica-venti [4])	O: Chenopodium album, herbicidal effect grade (Chenopodium album)	J: Alopecurus myosuroides, herbicidal effect grade (Alopecurus myosuroides [5])	herbicidal effect on H (Echinochloa crus-galli var. crus-galli), grade 0-5 [7]	R: Veronica persica, herbicidal effect grade (Veronica persica)	I: Avena fatua, herbicidal effect grade (Avena fatua)	further results
CON=C(C)CC1C(O)=C(c2c(C)cc(C)cc2C)C(=O)C1C (mixture of isomers) [12-002]	3 (Herbicidal ratio of 40% or higher and lower than 70%)	5 (Herbicidal ratio of 90% or more (almost completely withered))	–	–	–	–	–	–	–	–	–	–	–	–	–	–	Herbicidal effect grade, L: Apera spica-venti (Apera spica-venti [1]; [9]): 3 (Herbicidal ratio of 40% or higher and lower than 70%); J: Alopecurus myosuroides, herbicidal effect grade (Alopecurus myosuroides [2]): 5 (Herbicidal ratio of 90% or more (almost completely withered)); E herbicidal effect grade (Cyperus difformis; Table 24): 5 (Herbicidal ratio of 90% or more (almost completely withered)); g: rapeseed, effect on crop grade (rapeseed): 5 (Herbicidal ratio of 90% or more (almost completely withered)); c: corn, effect on crop grade (corn): 5 (Herbicidal ratio of 90% or more (almost completely withered)); Herbicidal effect grade, G: Setaria viridis (Setaria viridis; [9]): 5 (Herbicidal ratio of 90% or more (almost completely withered)); B (Scirpus juncoides) herbicidal effect grade (Scirpus juncoides [3]): 3 (Herbicidal ratio of 40% or higher and lower than 70%); Herbicidal effect grade, M: Abutilon theophrasti (Abutilon theophrasti; [9]): 0 (Herbicidal ratio of 5% or lower (almost no effect)); L: Apera spica-venti, herbicidal effect grade (Apera spica-venti [4]): 5 (Herbicidal ratio of 90% or more (almost completely withered)); Herbicidal effect grade, O: Chenopodium album (Chenopodium album; [9]): 0 (Herbicidal ratio of 5% or lower (almost no effect)); Herbicidal effect grade, J: Alopecurus myosuroides (Alopecurus myosuroides [5]; [9]): 4 (Herbicidal ratio of 70% or higher and lower than 90%); H (Echinochloa crus-galli var. crus-galli) herbicidal effect grade ([7]; Table 24): 5 (Herbicidal ratio of 90% or more (almost completely withered)); Herbicidal effect grade, R: Veronica persica (Veronica persica; [9]): 0 (Herbicidal ratio of 5% or lower (almost no effect)); Herbicidal effect grade, I: Avena fatua (Avena fatua; [9]): 4 (Herbicidal ratio of 70% or higher and lower than 90%)
CON=C(C)CC1CC(OC(=O)c2nc(C)sc2C)=C(c2c(C)cc(C)cc2C)C1=O (stereo not shown) [1-101]	5 (Herbicidal ratio of 90% or more (almost completely withered))	5 (Herbicidal ratio of 90% or more (almost completely withered))	5 (Herbicidal ratio of 90% or more (almost completely withered))	5 (Herbicidal ratio of 90% or more (almost completely withered))	5 (Herbicidal ratio of 90% or more (almost completely withered))	5 (Herbicidal ratio of 90% or more (almost completely withered))	5 (Herbicidal ratio of 90% or more (almost completely withered))	5 (Herbicidal ratio of 90% or more (almost completely withered))	5 (Herbicidal ratio of 90% or more (almost completely withered))	5 (Herbicidal ratio of 90% or more (almost completely withered))	5 (Herbicidal ratio of 90% or more (almost completely withered))	0 (Herbicidal ratio of 5% or lower (almost no effect))	5 (Herbicidal ratio of 90% or more (almost completely withered))	5 (Herbicidal ratio of 90% or more (almost completely withered))	0 (Herbicidal ratio of 5% or lower (almost no effect))	3 (Herbicidal ratio of 40% or higher and lower than 70%)	–
CON=C(C)CC1CC(OS(=O)(=O)N(C)C)=C(c2c(C)cc(C)cc2C)C1=O (stereo not shown) [1-122]	5 (Herbicidal ratio of 90% or more (almost completely withered))	5 (Herbicidal ratio of 90% or more (almost completely withered))	1 (Herbicidal ratio of 5% or higher and lower than 20%)	5 (Herbicidal ratio of 90% or more (almost completely withered))	5 (Herbicidal ratio of 90% or more (almost completely withered))	5 (Herbicidal ratio of 90% or more (almost completely withered))	5 (Herbicidal ratio of 90% or more (almost completely withered))	3 (Herbicidal ratio of 40% or higher and lower than 70%)	5 (Herbicidal ratio of 90% or more (almost completely withered))	0 (Herbicidal ratio of 5% or lower (almost no effect))	5 (Herbicidal ratio of 90% or more (almost completely withered))	0 (Herbicidal ratio of 5% or lower (almost no effect))	5 (Herbicidal ratio of 90% or more (almost completely withered))	5 (Herbicidal ratio of 90% or more (almost completely withered))	0 (Herbicidal ratio of 5% or lower (almost no effect))	2 (Herbicidal ratio of 20% or higher and lower than 40%)	–
CC(CC1CC(O)=C(c2c(C)cc(C)cc2C)C1=O)=NOCC1OCCO1 (stereo not shown) [1-111]	1 (Herbicidal ratio of 5% or higher and lower than 20%)	5 (Herbicidal ratio of 90% or more (almost completely withered))	5 (Herbicidal ratio of 90% or more (almost completely withered))	5 (Herbicidal ratio of 90% or more (almost completely withered))	5 (Herbicidal ratio of 90% or more (almost completely withered))	5 (Herbicidal ratio of 90% or more (almost completely withered))	5 (Herbicidal ratio of 90% or more (almost completely withered))	5 (Herbicidal ratio of 90% or more (almost completely withered))	2 (Herbicidal ratio of 20% or higher and lower than 40%)	4 (Herbicidal ratio of 70% or higher and lower than 90%)	5 (Herbicidal ratio of 90% or more (almost completely withered))	0 (Herbicidal ratio of 5% or lower (almost no effect))	5 (Herbicidal ratio of 90% or more (almost completely withered))	5 (Herbicidal ratio of 90% or more (almost completely withered))	0 (Herbicidal ratio of 5% or lower (almost no effect))	3 (Herbicidal ratio of 40% or higher and lower than 70%)	–

Source: patent publication US11000033B2, “Ketone or oxime compound, and herbicide” (NISSAN CHEMICAL CORPORATION, priority 2014, dated 2021)
